Results as given in ChEMBL document CHEMBL1201862, “PubChem BioAssay data set” (2004).
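Briefly, cells in 96-well plates were exposed to five compound concentrations for 48 h, and endpoints were estimated by linear interpolation. GI50 = concentration required for 50% inhibition of growth.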 Activity calls are given as the source filed them. Cut-off read from the data, not from the text of the source: active = GI50 up to about 1.1 µM and inactive = higher.

Experiments:
Experiment in all cases: NCI-60 cell line screen, 48 h
DMS-273 = system: DMS-273
DLD-1 = system: DLD-1
XF498 = system: XF498
KM-20L2 = system: KM-20L2
LXFL 529 = system: LXFL 529
DMS-114 = system: DMS-114
SNB-78 = system: SNB-78
HOP-18 = system: HOP-18
RXF 631 = system: RXF 631

Structure (SMILES)	GI50 (DMS-273)	GI50 (DLD-1)	GI50 (XF498)	GI50 (KM-20L2)	GI50 (LXFL 529)	GI50 (DMS-114)	GI50 (SNB-78)	GI50 (HOP-18)	GI50 (RXF 631)
CC(C)OP(=O)(OC(C)C)/C(=N/Nc1ccc([N+](=O)[O-])cc1)NCCN/C(=N\Nc1ccc([N+](=O)[O-])cc1)P(=O)(OC(C)C)OC(C)C	3.7 µM (inactive)	4.71 µM (inactive)	3.18 µM (inactive)	4.52 µM (inactive)	3.17 µM (inactive)	3.85 µM (inactive)			
C=CCC12CC(=O)CCC1c1ccc(OC)cc1C2=O (stereo not given)	> 100 µM (inactive)	> 100 µM (inactive)		> 100 µM (inactive)	> 100 µM (inactive)	> 100 µM (inactive)	> 100 µM (inactive)	> 100 µM (inactive)	
Cc1ccc(NC(=O)C(=O)C(C#N)c2nc(-c3ccc(-c4ccccc4)cc3)cs2)c(C)c1 (stereo not given)	39.6 µM (inactive)	> 100 µM (inactive)		> 100 µM (inactive)	> 100 µM (inactive)	> 100 µM (inactive)	> 100 µM (inactive)	> 100 µM (inactive)	
N#CC12CCC(O)C(CC1)C2=O (stereo not given)	96.8 µM (inactive)	47.3 µM (inactive)	> 100 µM (inactive)	> 100 µM (inactive)	> 10 µM (inactive)	19.4 µM (inactive)	> 100 µM (inactive)	> 100 µM (inactive)	> 100 µM (inactive)
O=C(O)CN(CC(=O)O)Cc1cc(C#Cc2ccc(C#Cc3ccccc3)cc2)cc(CN(CC(=O)O)CC(=O)O)n1	7.66 µM (inactive)	8.53 µM (inactive)	20.5 µM (inactive)	17 µM (inactive)	27.2 µM (inactive)	13.8 µM (inactive)	44.3 µM (inactive)	33.4 µM (inactive)	
Cn1nc(-c2ccccc2)c2c(/C=C/c3ccccc3)onc2c1=O		78.9 µM (inactive)	26.8 µM (inactive)	> 100 µM (inactive)	> 100 µM (inactive)	98.4 µM (inactive)	38.7 µM (inactive)	25.5 µM (inactive)	73.3 µM (inactive)
COc1cc2c(cc1OC)C(CC1=C(c3ccccc3)CN3CCc4cc(OC)c(OC)cc4C3C1)NCC2 (stereo not given)	15.7 µM (inactive)	19.1 µM (inactive)	11.7 µM (inactive)	13.4 µM (inactive)	16.6 µM (inactive)	14.3 µM (inactive)	15.6 µM (inactive)	14.6 µM (inactive)	14.8 µM (inactive)
CC(=O)OC1=C2CC[C@@H]3C(CC[C@@]4(C)C3CC[C@@H]4OC(C)=O)[C@@]2(C)CC(C#N)C1=O (stereo not given in full)	20.9 µM (inactive)	9.82 µM (inactive)	18.6 µM (inactive)	27.7 µM (inactive)	30 µM (inactive)	17.8 µM (inactive)	26.8 µM (inactive)		
CC(C)N1C(C)[C@@H](c2ccccc2)O[P@@]1(=O)CC1=CCCCC1 (stereo not given in full)		> 100 µM (inactive)	> 100 µM (inactive)	> 100 µM (inactive)	> 100 µM (inactive)	51.4 µM (inactive)		> 100 µM (inactive)	
CN(C)C(=S)/N=c1\ssc(=S)n1Cc1cccs1		3.82 µM (inactive)		1.87 µM (inactive)	4.75 µM (inactive)	2.15 µM (inactive)	6.68 µM (inactive)	8.89 µM (inactive)	
CCOC(=O)N[C@@H]1C2CC(=O)C(O2)[C@@H]1OC (stereo not given in full)		> 100 µM (inactive)		> 100 µM (inactive)			> 100 µM (inactive)	> 100 µM (inactive)	
COc1ccc(N/N=C(\CCN(C)C)c2ccccc2)cc1	3 µM (inactive)	1.66 µM (inactive)		0.489 µM (active)	1.6 µM (inactive)	10.9 µM (inactive)	12.8 µM (inactive)	22.1 µM (inactive)	
c1cnc2c(c1)-n1cccc1C1(CCSC1)NN2 (stereo not given)	> 100 µM (inactive)	> 100 µM (inactive)	> 100 µM (inactive)			> 100 µM (inactive)	> 100 µM (inactive)	28.4 µM (inactive)	
CCOC(=O)C1(Br)C(c2ccccc2)NC(=O)N(C2OC(COC(=O)c3ccccc3)C(OC(=O)c3ccccc3)C2OC(=O)c2ccccc2)C1(C)Br (stereo not given)	33.5 µM (inactive)	36.4 µM (inactive)		37.9 µM (inactive)	21.6 µM (inactive)	18.3 µM (inactive)		> 100 µM (inactive)	15.3 µM (inactive)
COc1cc(C)c(C)c(OC(=O)c2c(C)c(C)c(OC)c(C)c2OC)c1C	3.94 µM (inactive)	7.31 µM (inactive)	12.2 µM (inactive)	4.17 µM (inactive)	8.87 µM (inactive)	3.29 µM (inactive)	21.1 µM (inactive)	10.4 µM (inactive)	10.3 µM (inactive)
C[C@]12CCC[C@H](Cl)C1(O)C[C@H](C(=O)O)CC2 (stereo not given in full)	> 100 µM (inactive)	> 100 µM (inactive)	> 100 µM (inactive)	> 100 µM (inactive)	> 100 µM (inactive)	> 100 µM (inactive)	> 100 µM (inactive)	> 100 µM (inactive)	
COc1cc(/C=C\c2ccc(SC)cc2)cc(OC)c1OC	0.0258 µM (active)	0.0409 µM (active)	0.0908 µM (active)	0.0182 µM (active)	< 0.0221 µM (active)	< 0.0202 µM (active)	0.0452 µM (active)	0.0453 µM (active)	
COC(=O)C(=O)C1CCCCC(C2=NC3NN=C(N)N3C2=O)C1=O (stereo not given)	> 100 µM (inactive)	> 100 µM (inactive)	> 100 µM (inactive)	> 100 µM (inactive)	> 100 µM (inactive)	> 100 µM (inactive)		> 100 µM (inactive)	> 100 µM (inactive)
OCC1CC2C=CCC(C2)C1 (stereo not given)	> 100 µM (inactive)	> 100 µM (inactive)	> 100 µM (inactive)	> 100 µM (inactive)	> 100 µM (inactive)	> 100 µM (inactive)	> 100 µM (inactive)	> 100 µM (inactive)	
Cc1c(Cl)ccc2c1NC(=O)C2(O)CC(=O)c1ccc(Cl)cc1 (stereo not given)	48.2 µM (inactive)	42.9 µM (inactive)		> 100 µM (inactive)	> 38.9 µM (inactive)	11.7 µM (inactive)	> 96.6 µM (inactive)	> 70.8 µM (inactive)	71.1 µM (inactive)
Cc1cccc(C)c1NC(=O)C(=O)CC(=O)CO	> 100 µM (inactive)	> 100 µM (inactive)		> 100 µM (inactive)	> 100 µM (inactive)	> 100 µM (inactive)	> 100 µM (inactive)	> 100 µM (inactive)	> 100 µM (inactive)
O=C(O)/C(Cl)=C(\Cl)C(=O)Nc1ccccc1	> 100 µM (inactive)	> 100 µM (inactive)		> 100 µM (inactive)	> 100 µM (inactive)		> 100 µM (inactive)	> 100 µM (inactive)	> 100 µM (inactive)
CCCCc1c2c(nc3c1CCc1cc4c(nc1-3)-c1nc3c(c(CCCC)c1CC4)CCC/C3=C\c1ccccc1)/C(=C/c1ccccc1)CCC2	35.2 µM (inactive)	> 100 µM (inactive)	32.5 µM (inactive)	> 100 µM (inactive)	30.8 µM (inactive)	47.5 µM (inactive)	39.4 µM (inactive)		
NC(CCC(=O)Nc1ccc(O)cc1)C(=O)O (stereo not given)	> 100 µM (inactive)	> 100 µM (inactive)	> 100 µM (inactive)	> 100 µM (inactive)	> 100 µM (inactive)	> 100 µM (inactive)	> 100 µM (inactive)	> 100 µM (inactive)	
Nc1ccc(N)c2c1C(=O)c1c(N)ccc(N)c1C2=O	39 µM (inactive)	78.7 µM (inactive)	> 54.5 µM (inactive)	> 100 µM (inactive)		30.6 µM (inactive)	78.5 µM (inactive)	16.3 µM (inactive)	
COC(=O)C(Cc1nc2ccccc2nc1O)C(=O)C(=O)Nc1ccc(OC)cc1[N+](=O)[O-] (stereo not given)			> 100 µM (inactive)	> 100 µM (inactive)	> 100 µM (inactive)		> 100 µM (inactive)		
N#CC1(c2nc3ccccc3o2)C(=O)C(=O)N(c2ccc(Cl)c(Cl)c2)C(=O)C1=O	> 100 µM (inactive)	> 100 µM (inactive)	> 100 µM (inactive)	> 100 µM (inactive)	58.1 µM (inactive)		> 100 µM (inactive)	> 100 µM (inactive)	
Fc1ccc(C2SCc3nc4ccccc4n32)cc1 (stereo not given)		39.7 µM (inactive)	27.8 µM (inactive)		34.4 µM (inactive)	39.5 µM (inactive)	13.8 µM (inactive)	< 0.01 µM (active)	
